From patent US8268854B2, “Aza-beta-carbolines and methods of using same” (The UWM Research Foundation, Inc., priority 2008, dated 2012) come the findings set out here.

The subject of one assay is GABAA receptor. Nature of the assay: PDSP radioligand binding assay (Example 6). The note with it: Example 6, written in present tense. Here is the method: Primary and secondary radioligand binding assays are performed. In general, the primary assay is run at very high ligand (compound) concentration as a broad screen to determine whether a compound binds to a particular receptor. If greater than 50% inhibition at 10 μM (high concentration of compound) at a particular receptor is determined, a secondary assay is performed on that receptor. Data from the secondary assay is the binding affinity (Ki value).
A solution of the compound to be tested is prepared as a 1 mg/ml stock in Standard Binding Buffer or dimethyl sulfoxide (DMSO) according to its solubility. A similar stock of a reference compound (positive control) is also prepared. […]
The 250 μL reactions are incubated at room temperature and shielded from light (to prevent photolysis of light-sensitive ligands) for 1.5 hours, then harvested by rapid filtration onto Whatman GF/B glass fiber filters pre-soaked with 0.3% polyethyleneimine using a 96-well Brandel harvester. […] The tubes are capped, labeled, and counted by liquid scintillation counting. For higher throughput assays, bound radioactivity is harvested onto 0.3% polyethyleneimine-treated, 96-well filter mats using a 96-well Filtermate harvester. The filter mats are dried, then scintillant is melted onto the filters, and the radioactivity retained on the filters is counted in a Microbeta scintillation counter. […]

Assay [1] relates to BzR/GABAa-ergic receptors. The settings on record: Example 8, written in present tense.
The target in assay [2] is T1, GABAA receptor α2 subtype with β2 and γ2 subunits (Homo sapiens, UniProt P18507+P47869).
T1 construct: expressed in transfected cells; host or cells: HEKT cell line, transient transfection with Fugene 6
Nature of the assay: Competition binding assay with [3H]flunitrazepam. The note with it: [3H]flunitrazepam, α2β2γ2, HEKT cells; read-out: GABAA RECEPTOR BINDING α2. An excerpt: (§1) Bound radioactivity is quantified by liquid scintillation counting.

The target of assay [3] is T2, GABAA receptor α3 subtype with β2 and γ2 subunits (Homo sapiens, UniProt P18507+P34903).
T2 construct: expressed in transfected cells; host or cells: HEKT cell line, transient transfection with Fugene 6
Nature of the assay: Competition binding assay with [3H]flunitrazepam. The note with it: [3H]flunitrazepam, α3β2γ2, HEKT cells; read-out: GABAA RECEPTOR BINDING α3.
Text: as §1

The target of assay [4] is T3, GABAA receptor α5 subtype with β2 and γ2 subunits (Homo sapiens, UniProt P18507+P31644).
T3 construct: expressed in transfected cells; host or cells: HEKT cell line, transient transfection with Fugene 6
Nature of the assay: Competition binding assay with [3H]flunitrazepam. The settings on record: [3H]flunitrazepam, α5β2γ2, HEKT cells; read-out: GABAA RECEPTOR BINDING α5.
Text: as §1

The target of assay [5] is T4, GABAA receptor α1 subtype with β2 and γ2 subunits (Homo sapiens, UniProt P14867+P18507).
T4 construct: expressed in transfected cells; host or cells: HEKT cell line, transient transfection with Fugene 6
The assay is described as follows: Competition binding assay with [3H]flunitrazepam. The settings on record: [3H]flunitrazepam, α1β2γ2, HEKT cells; read-out: GABAA RECEPTOR BINDING α1.
Text: as §1

Turning to “tert-Butyl pyridine[4′,5′-4,5]pyrrolo[3,2-c]pyridine-8-carboxylate [Compound 1]”, in the assay on GABAA receptor, the “binding to GABAA receptor (in words)” value is reported as “shown to bind to GABAA receptor”. The “binding to the BzR/GABAa-ergic receptors (in words)” value in assay [1] is given as “potently binds”.
Turning to `CC(C)(C)OC(=O)c1cc2c(cn1)[nH]c1cnccc12` [Compound 3, Tert-Butyl pyridine[4′,5′-5,4]pyrrolo[2,3-c]pyridine-3-carboxylate], the “binding to GABAA receptor (in words)” value in the assay with GABAA receptor is “shown to bind to GABAA receptor”. Further, the Ki in assay [2] was 2.5 nM; in assay [3] it was 3.4 nM; in assay [4], 3.7 nM; in assay [5] it was 2.9 nM.
